Where two headings read alike, the source gives them in different places.
Columns and labels:
[1] = Enzymatic hydrolysis in aqueous humor at 37° C.; assay type: in vitro ADME, New Zealand albino rabbits
Experimental: (§1) The stability of the ethyl succinyl derivative in isotonic saline buffer was determined in order to contrast the rates of hydrolysis of a chemical system with those of the ocular enzymatic systems. Ocular tissues were obtained from New Zealand albino rabbits. Homogenates were prepared in isotonic saline with a potassium phosphate buffer pH 7.4. High pressure liquid chromatography systems with spectrophotometric (254 nm) and electrochemical detection were used for determination.

[2] = Enzymatic hydrolysis in corneal tissue homogenate at 37° C.; assay type: in vitro ADME, New Zealand albino rabbits; settings: Corneal tissue 10% homogenate, pH 7.4, 37° C.
Experimental: as §1

[3] = test system: pupil; assay: Mydriatic study: pupil diameter difference between drug-treated and saline-treated eye in normal albino rabbits; assay type: in vivo, New Zealand male albino rabbits; settings: drug eye vs saline eye difference
Experimental: Normal New Zealand male albino rabbits weighing from 2 to 3 kg. were used in the studies. The animals were placed in fiberglass restraining cages at least a half hour before the experiment and remained there throughout the test. The cages were located in a light and temperature controlled room. Pupil diameter was measured with a monostat vernier caliper held at a constant distance from observer and animal eyes. Drug solutions were formulated by dissolving the test agent in 0.9% saline solutions.
In the test procedure, a standard dose volume of 0.05 ml of the drug solution was applied to one eye and 0.9% saline was applied to the other eye of the same animal. The differences in the same animals between pupil diameter in millimeters of the eye with drug applied against the other eye with only saline instilled were recorded.
The pupillary dose response results are shown below in Table I.

[4] = Stability in isotonic saline buffer pH 7.4 at 37° C.; assay type: physicochemical; settings: Isotonic saline pH 7.4, 37° C.
Experimental: as §1

[5] = Enzymatic hydrolysis in iris/ciliary body homogenate at 37° C.; assay type: in vitro ADME, New Zealand albino rabbits; settings: Iris/ciliary body 10% homogenate, pH 7.4, 37° C.
Experimental: as §1

[6] = Enzymatic hydrolysis in human plasma at 37° C.; assay type: in vitro ADME
[7] = test system: intraocular pressure; settings: cited from earlier work; for ocular tension (intraocular pressure) reduction: clinical study
[8] = test system: glaucoma; settings: cited from earlier work
[9] = test system: intraocular pressure; settings: cited from earlier work
[10] = Half-life of adrenalone diesters (R methyl, R1 = R2); assay type: in vitro ADME; settings: R is methyl, medium not stated, read-out: half-life (t1/2)
From the text: Further, it should be noted that R is preferrably methyl.

[11] = Ocular distribution after topical administration of the diester; assay type: in vivo; settings: after topical administration of compound of Formula I (formed by hydrolysis / reduction-hydrolysis)
From the text: Thus, topical adminstration of a compound of Formula I to the eye of an animal effectively induces pupil diameter enlargement and lowers intraocular pressure for a limited duration as a novel type of site-specific delivery system for epinephrine without the concomitant appearance of any significant undesirable side-effects associated with the prior art.

[12] = test system: eye; settings: cited from earlier work
[13] = test system: pupil; settings: 2% solution; cited from earlier work
[14] = test system: eye; settings: cited from earlier work; for ocular sympathomimetic activity: in vivo; for potency relative to dipivalyl epinephrine: on a molar basis
[15] = test system: eye; settings: in vivo; cited from earlier work
[16] = test system: eye; settings: topical, prolonged usage; cited from earlier work

CCOC(=O)CCC(=O)Oc1ccc(C(=O)CNC)cc1OC(=O)CCC(=O)OCC [0,0-di(ethylsuccinyl) adrenalone hydroperchlorate]
k (hydrolysis rate constant) [1]: 5.09 min^-1 × 10^-1
half-life ([1]; rabbit): 1.36 min
k (hydrolysis rate constant) [2]: 3.08 min^-1 × 10^-1
half-life ([2]; rabbit): 2.25 min
Pupil diameter (X ± S.E.) ([3]; 1.0×10^-2 M, 10 minutes): 0.34 mm
Pupil diameter (X ± S.E.) ([3]; 1.0×10^-2 M, 20 minutes): 0.43 mm
Pupil diameter (X ± S.E.) ([3]; 1.0×10^-2 M, 30 minutes): 1.27 mm
Pupil diameter (X ± S.E.) ([3]; 1.0×10^-2 M, 60 minutes): 1.42 mm
Pupil diameter (X ± S.E.) ([3]; 1.0×10^-2 M, 120 minutes): 0.18 mm
Pupil diameter (X ± S.E.) ([3]; 1.0×10^-2 M, 180 minutes): 0.37 mm
Pupil diameter (X ± S.E.) ([3]; 1.5×10^-2 M, 10 minutes): 0.33 mm
Pupil diameter (X ± S.E.) ([3]; 1.5×10^-2 M, 20 minutes): 0.80 mm
Pupil diameter (X ± S.E.) ([3]; 1.5×10^-2 M, 30 minutes): 1.10 mm
Pupil diameter (X ± S.E.) ([3]; 1.5×10^-2 M, 60 minutes): 2.13 mm
Pupil diameter (X ± S.E.) ([3]; 1.5×10^-2 M, 120 minutes): 0.34 mm
Pupil diameter (X ± S.E.) ([3]; 1.5×10^-2 M, 180 minutes): 0.16 mm
Pupil diameter (X ± S.E.) ([3]; 2.0×10^-2 M, 10 minutes): 0.69 mm
Pupil diameter (X ± S.E.) ([3]; 2.0×10^-2 M, 20 minutes): 1.12 mm
Pupil diameter (X ± S.E.) ([3]; 2.0×10^-2 M, 30 minutes): 1.64 mm
Pupil diameter (X ± S.E.) ([3]; 2.0×10^-2 M, 60 minutes): 3.11 mm
Pupil diameter (X ± S.E.) ([3]; 2.0×10^-2 M, 120 minutes): 0.79 mm
Pupil diameter (X ± S.E.) ([3]; 2.0×10^-2 M, 180 minutes): 0.31 mm
Pupil diameter (X ± S.E.) ([3]; 2.4×10^-3 M, 10 minutes): 0.15 mm
Pupil diameter (X ± S.E.) ([3]; 2.4×10^-3 M, 20 minutes): 0.18 mm
Pupil diameter (X ± S.E.) ([3]; 2.4×10^-3 M, 30 minutes): 0.20 mm
Pupil diameter (X ± S.E.) ([3]; 2.4×10^-3 M, 60 minutes): 0.30 mm
Pupil diameter (X ± S.E.) ([3]; 2.4×10^-3 M, 120 minutes): 0.08 mm
Pupil diameter (X ± S.E.) ([3]; 2.4×10^-3 M, 180 minutes): 0.11 mm
Pupil diameter (X ± S.E.) ([3]; 2.5×10^-2 M, 10 minutes): 0.44 mm
Pupil diameter (X ± S.E.) ([3]; 2.5×10^-2 M, 20 minutes): 1.99 mm
Pupil diameter (X ± S.E.) ([3]; 2.5×10^-2 M, 30 minutes): 2.90 mm
Pupil diameter (X ± S.E.) ([3]; 2.5×10^-2 M, 60 minutes): 3.29 mm
Pupil diameter (X ± S.E.) ([3]; 2.5×10^-2 M, 120 minutes): 1.66 mm
Pupil diameter (X ± S.E.) ([3]; 2.5×10^-2 M, 180 minutes): 0.22 mm
Pupil diameter (X ± S.E.) ([3]; 5.0×10^-3 M, 10 minutes): 0.20 mm
Pupil diameter (X ± S.E.) ([3]; 5.0×10^-3 M, 20 minutes): 0.56 mm
Pupil diameter (X ± S.E.) ([3]; 5.0×10^-3 M, 30 minutes): 0.82 mm
Pupil diameter (X ± S.E.) ([3]; 5.0×10^-3 M, 60 minutes): 0.78 mm
Pupil diameter (X ± S.E.) ([3]; 5.0×10^-3 M, 120 minutes): 0.46 mm
Pupil diameter (X ± S.E.) ([3]; 5.0×10^-3 M, 180 minutes): 0.58 mm
k (hydrolysis rate constant) [4]: 0.04 min^-1 × 10^-1
half-life ([4]; isotonic saline buffer): 173 min
k (hydrolysis rate constant) [5]: 7.91 min^-1 × 10^-1
half-life ([5]; rabbit): 0.88 min
half-life [6]: 1.01 min
k (hydrolysis rate constant) [6]: 6.68 min^-1 × 10^-1

CNC[C@H](O)c1ccc(O)c(O)c1 [1-adrenaline]
ocular tension (intraocular pressure) reduction [7]: lowered ocular tension

CC(C)NCC(=O)c1ccc(O)c(O)c1 [3,4-dihydroxy-2-(isopropylamino) acetophenone]
mydriatic activity (side-effect) ([8]; in vivo): toxic, harmful or deleterious side-effect
treatment of glaucoma ([8]; in vivo): successful treatment of glaucoma
concentration needed to achieve the desired result ([8]; treatment of glaucoma): 3%

CC(C)NCC(O)c1ccc(O)c(O)c1 (stereo not drawn) [Isoproterenol]
intraocular pressure reduction ([9]; in vivo): satisfactorily reduced intraocular pressure
mydriasis ([9]; in vivo): causing mydriasis
serious side-effects ([9]; treatment of glaucoma): taachycardia, weakness, and palpatations were observed

CCOC(=O)CCC(=O)Oc1ccc(C(=O)CNC)cc1OC(=O)CCC(=O)OCC [R1 = R2 (1)]
half-life [10]: 1.01 min

CCCC(=O)Oc1ccc(C(=O)CNC)cc1OC(=O)CCC [R1 = R2 (2)]
half-life [10]: 2.13 min

CCCCCC(=O)Oc1ccc(C(=O)CNC)cc1OC(=O)CCCCC [R1 = R2 (3)]
half-life [10]: 2.96 min

CCN(CC)C(=O)CCC(=O)Oc1ccc(C(=O)CNC)cc1OC(=O)CCC(=O)N(CC)CC [R1 = R2 (4)]
half-life [10]: 8.55 min

CNCC(=O)c1ccc(OC(=O)C=Cc2ccccc2)c(OC(=O)C=Cc2ccccc2)c1 [R1 = R2 (5)]
half-life [10]: 10.1 min

CNCC(=O)c1ccc(OC(=O)CC(C)C)c(OC(=O)CC(C)C)c1 [R1 = R2 (6)]
half-life [10]: 19.2 min

CNCC(=O)c1ccc(OC(=O)C(C)(C)C)c(OC(=O)C(C)(C)C)c1 [R1 = R2 (7)]
half-life [10]: 57.8 min

CNCC(=O)c1ccc(O)c(O)c1 [adrenalone]
ocular distribution [11]: found in every compartment of the eye
mydriasis ([12]; high concentrations): will not produce mydriasis
reduction in the eye to adrenalin ([12]; topical administration): not reduced in the eye to the active adrenalin
mydriatic activity [13]: only a minimal level of mydriatic activity
intraocular pressure reduction ([7]; 2% solution, patients suffering from glaucoma): did not cause any reduction in the intraocular pressure
ocular tension (intraocular pressure) reduction [7]: do not

CNC[C@@H](O)c1ccc(O)c(O)c1 [d-adrenalin]
ocular tension (intraocular pressure) reduction [7]: do not

CNCC(=O)c1ccc(OC(=O)CC(C)C)c(OC(=O)CC(C)C)c1 [diisovaleryl]
ocular sympathomimetic activity [14]: High ocular sympathomimetic activity
potency relative to dipivalyl epinephrine [14]: more potent on a molar basis than the successful prodrug of epinephrine, dipivalyl epinephrine

CNCC(=O)c1ccc(OC(=O)C(C)(C)C)c(OC(=O)C(C)(C)C)c1 [dipivalyl]
recovery of normal vision [15]: did not achieve faster recovery of normal vision
ocular sympathomimetic activity [14]: High ocular sympathomimetic activity
potency relative to dipivalyl epinephrine [14]: more potent on a molar basis than the successful prodrug of epinephrine, dipivalyl epinephrine

CNC[C@H](O)c1ccc(O)c(O)c1 [epinephrine]
ocular distribution [11]: found only in the uveal (iris-ciliary body) tissues
mydriasis (side effect) [16]: frequently causes mydriasis
retinal maculopathy (side effect) [16]: sometimes retinal maculopathy

Source: patent publication US4594356A, “Method for inducing mydriasis in animals” (Key Pharmaceuticals, Inc., priority 1985, dated 1986)
